{"source": "paper PMC10063231", "about": "“Human thymopoiesis produces polyspecific CD8^+ α/β T cells responding to multiple viral antigens” (eLife, 2023)", "test_system": "TCR identified as responding to the VMNILLQYV peptide (GAD 114-122 TCR)", "assay": "Response of a cloned GAD 114-122-reactive TCR in the reporter cell line to cognate and unrelated peptides", "format": "cell-based, human", "conditions": "cognate peptide versus structurally unrelated peptide, Figure 5D", "data": [{"sequence": "VMNILLQYV [peptide from the Glutamic Acid Decarboxylase protein]", "values": [{"measurement": "Response of GAD 114-122 TCR in reporter cell line", "result": "responding"}]}, {"sequence": "SLYNPAIVYA [peptide from human chondroitin sulfate N-acetylgalactosaminyltransferase 2]", "values": [{"measurement": "Response of GAD 114-122 TCR in reporter cell line", "result": "responded even better"}]}]}
